{"source": "patent US8371292B2", "about": "“Use of ciclesonide for the treatment of respiratory diseases” (Nycomed GmbH, priority 2003, dated 2013)", "key": {"[1]": {"experiment": "clinical study in children with mild asthma: tolerability", "format": "in vivo, human", "details": "40, 80 and 160 μg once daily, 2 weeks", "procedure": "(§1) The present study was conducted to determine the effects of ciclesonide at doses intended for the use in children on lower leg growth rate and HPA function in children with mild asthma.\n(§2) METHODS: In a double blind, randomized, placebo-controlled, 4-period cross-over study, 24 children, 6 to 12 years of age, received ciclesonide 40, 80 and 160 μg or placebo via HFA-MDI once daily in the evening. Each 2-week treatment period was followed by a 2-week washout. Knemometry was performed at the beginning and the end of each treatment period. Cortisol levels in 12 h overnight urine were measured at the end of each treatment period."}, "[2]": {"details": "cited from earlier work"}, "[3]": {"experiment": "clinical study in children with mild asthma: HPA function, cortisol in 12 h overnight urine", "format": "in vivo, human", "details": "40, 80 and 160 μg once daily or placebo, 12 h overnight urine at end of each 2-week period", "procedure": "as §1, §2"}, "[4]": {"details": "cited from earlier work", "remark": "listed apart in the source"}, "[5]": {"experiment": "clinical study in children with mild asthma: lower leg growth rate by knemometry", "format": "in vivo, human", "details": "for lower leg growth rate: 2-week treatment, children 6 to 12 years, placebo 0.412 mm/week", "procedure": "as §1, §2"}, "[6]": {"details": "40, 80 and 160 μg once daily, 2 weeks"}}}
{"compound": "CC(C)C(=O)OCC(=O)[C@@]12O[C@H](C3CCCCC3)O[C@@H]1C[C@H]1[C@@H]3CCC4=CC(=O)C=C[C@]4(C)[C@H]3[C@@H](O)C[C@@]12C", "note": "[ciclesonide, [11β,16α(R)]-16,17-[(Cyclohexylmethylen)bis(oxy)]-11-hydroxy-21-(2-methyl-1-oxopropoxy)pregna-1,4-dien-3,20-dion]", "values": [{"measurement": "tolerability", "setting": "[1]", "value": "well tolerated"}, {"measurement": "concentration of the drug in the lungs", "setting": "[2]; in vivo", "value": "high"}, {"measurement": "metabolism by liver oxidases", "setting": "[2]; in vivo", "value": "very high"}, {"measurement": "plasma half-life", "setting": "[2]; in vivo", "value": "low plasma half-life"}, {"measurement": "absorption after oral administration", "setting": "[2]; oral", "value": "only moderately absorbed"}, {"measurement": "urinary free cortisol adjusted for creatinine, difference between treatments", "setting": "[3]", "value": "no difference"}, {"measurement": "systemic activity", "setting": "[4]; in vivo", "value": "low systemic activity"}, {"measurement": "anti-inflammatory activity compared with budesonide", "setting": "[4]; relative to budesonide", "value": "higher"}, {"measurement": "systemic activity compared with budesonide", "setting": "[4]; relative to budesonide", "value": "three times lower"}, {"measurement": "lower leg growth rate", "setting": "[5]; 40 μg once daily in the evening via HFA-MDI", "value": 0.425, "unit": "mm/week"}, {"measurement": "lower leg growth rate", "setting": "[5]; 80 μg once daily in the evening via HFA-MDI", "value": 0.397, "unit": "mm/week"}, {"measurement": "lower leg growth rate", "setting": "[5]; 160 μg once daily in the evening via HFA-MDI", "value": 0.370, "unit": "mm/week"}, {"measurement": "difference in lower-leg growth rates between ciclesonide treatments and placebo", "setting": "[5]; [6]", "value": "No statistically significant differences"}, {"measurement": "dose-response effect on lower leg growth rate", "setting": "[5]; [6]", "value": "no statistically significant dose-response effect"}]}
